According to patent publication US9586901B2, “Lactams” (UNILEVER PLC, priority 2006, dated 2017):

Legend:
[1] = system: Staphylococcus epidermidis; assay: S. epidermidis growth inhibition (OD600 growth curves); format: cell-based; settings: concentration of compound that significantly alters growth rate or final growth yield
Procedure: The growth inhibition of Staphylococcus epidermidis by the compounds of the present invention was determined by growing S. epidermidis in 96 well microtitre plates in Trypticase Soy Broth plus 0.5% glucose in a Wallac Victor2 microplate reader. Each compound was added to the wells at different concentrations and a no-compound control and a set of blank wells were also used. The OD600 was measured hourly.

V. fischeri luxRI system = assay: N-acylated homoserine lactone (AHL) quorum sensing assay, GFP reporter strain; format: cell-based, E. coli
Procedure: Compounds of the present invention were compared to compounds of the prior art in order using an AHL-quorum sensing assay which utilises a reporter strain that expresses Green Fluorescent Protein (GFP) in the presence of AHL signals. The assay is performed by measuring GFP output in the presence of the compound to be measured and comparing the output to a control. By using multiple samples at varying concentrations of compound and AHL, an inhibition index of compound activity can be generated. The inhibition index used in the present example is the relative amount of compound required to reduce GFP expression to 40% of the control. The inhibition index is termed AIC40. Lower values of AIC40 represent better inhibitors of the AHL quorum sensing system.
The reporter strain of bacterium used in this assay is E. coli into which the V. fischeri luxRI system has been engineered. A gfp gene is fused to the QS controlled luxI promoter as is described in (Andersen et al., 2001, and Andersen et al, 1998).
Measurement of AIC40 (ID40 at 3 nM OHHL)
Determination of the activity of compounds using the E. coli based luxRI construct was performed as follows.
In a 15 mL plastic tube, mix 3 mL of o.n. culture of the lux reporter strain with 12 mL fresh medium, incubate at 37° C. Label six tubes, 10, 20, two 50 and two 100. To each of the tubes, add OHHL (3-oxohexanoyl homoserine lactone) to a final concentration of 10, 20, 50, or 100 nM respectively in the AB medium (add enough medium to distribute across the appropriate number of wells). To the first row of the microplate (row A), add 200 ul of the OHHL/AB mixture. To the remaining rows (B-H) add 100 ul of the OHHL/AB mixture. To the first row (A) add compounds to be tested to the 200 ul mixture of OHHL/AB. Make a dilution series in the first 7 rows by transferring 100 μL from wells in row 1 to wells in row 2 and so on. Discard the remaining 100 μL from row 7. Add 100 μL diluted lux monitor to each well. Incubate the plate 2 hours at 37° C. and measure green fluorescence using the “Victor” plate reader.
Calculate ID40 for each column. To do this, calculate the relative activity in each well. […] Make a plot for each concentration of OHHL vs. the range of compound concentrations used. Calculate the amount of compound needed to lower the relative activity to 40%, this is termed inhibiting dose 40%, ID40. For each compound an inhibition index, AIC40, is found as follows: plot ID40 against its respective AHL concentration; AIC40 is the slope of the best straight line through the plotted points and origin.
The methodology for this assay is set out in 2(a) above.

[2] = system: Pseudomonas aeruginosa PAO1 (wt); assay: Pulmonary model of infection: mice challenged with bacteria/seaweed alginate through the trachea; format: in vivo
Procedure: The first group was treated with 5-methylene-4-phenyl-dihydro-pyrrol-2-one (C219) as 12 μg/g body weight, given as injections twice a day for three days and the second group were treated with vehicle. (p=0.0008).
This model is reminiscent of the situation in CF patients or patients with a dysfunctional muccociliary escalator.
The treatment dosage of 5-methylene-4-phenyl-dihydro-pyrrol-2-one (C219) was 12 μg/g body weight, given as injections twice a day.
Mice were challenged with Pseudomonas aeruginosa PAO1 (wt) 5.2×10^6 CFU/lung (1.3×10^8 CFU/ml). Each group holds 10 mice, the treatments with C219 and Vehicle lasted for three days. The mortality was 10% in C219 and 30% in Vehicle groups. At day 5, the surviving mice were sacrificed.

Murine L929 cells = assay: Cytotoxicity study, L929 cell number after 48 hour culture; format: cell-based; settings: for Mean (cell number): L929, 48 hour; for % Inhibition: cell number vs non-challenged cultures
Procedure: Murine L929 cells are established at low density and, during the testing period, grow to confluency in plastic petri dishes. 24 hours after the dishes are inoculated, the medium on the test dishes is aspirated and replaced with a medium containing the compound to be tested. The cell monolayer is then cultured for a further 48 hour period. At the end of the test period, cells are harvested from the dishes and their numbers assessed and compared with unperturbed cultures. Differences in cell numbers are expressed as a percentage inhibition in comparison to non-challenged cultures.

P. aeruginosa biofilm = assay: Inhibition of biofilm formation in petri dishes, P. aeruginosa; format: cell-based; settings: percent reduction of control
Procedure: (§1) Biofilm formation in petri dishes was measured using the following protocol as a compromise between flow cells and microtitire plate based assays. The method increases the number of replicates (relative to flow cells) that can be tested while still generating a biofilm that has typical structures, such as microcolonies, which are important as differentiated structures within the biofilm. The method consists of placing a surface, such as a glass slide (for unattached compounds) or a modified plastic coupon (for covalently attached compounds) on the bottom of a sterile petri dish and adding growth medium. The bacteria are inoculated into the dish and allowed to incubate at the appropriate temperature at 50 rpm. The medium is replaced at 24 h and allowed to incubate a further 24 h, after which time, the slides are removed and rinsed to remove loosely attached cells. For monitoring biofilm formation on glass slides, the cells are either stained with a suitable fluorescent stain and are visualised using the confocal microscope and the biofilm (as % surface coverage) is quantified, or the biofilm is stained with crystal violet, washed thoroughly to remove excess stain, and subsequently destained and the absorbance at […] is measured to determine the amount of biofilm, as a function of crystal violet staining.

LasR = LasR assay (unstable gfp fused to the elastase promoter); format: cell-based; settings: Pseudomonas aeruginosa, read-out: LasR (conc)
Procedure: Compounds of the present invention were also assayed using a LasR assay. The LasR assay provides a measurement of quorum sensing inhibition activity. The higher the percentage inhibition. […] In the LasR assay, an unstable gfp has been fused to the elastase promoter, so that the amount of Gfp is regulated by the QS system. The plasmid is put into Pseudomonas aeruginosa which makes its own AHL signals. The assay is performed by adding the compounds to be tested to the system at the beginning of the experiment, at different concentrations. Gfp expression is measured at different times during growth, ending at the 24 h time point. The percentage fluorescence was determined at the time point when the fluorescence reached its maximum in the control, usually around 11-12 h after inoculation.

S. epidermidis biofilm = assay: Inhibition of biofilm formation in petri dishes, S. epidermidis; format: cell-based; settings: percent reduction of control
Procedure: as §1

[3] = Table 4 comparative results, first number of the cell, lower = better
[4] = inhibition index: slope of ID40 against AHL concentration, lower = better inhibitor, NE = no effect

SMILES: COc1cccc(C2=CC(=O)NC2(C)O)c1 (stereo not shown)
- minimal effective concentration [1]: > 50 µg/mL

SMILES: C=C1NC(=O)C=C1c1ccccc1 [Compound 219, 5-methylene-4-phenyl-dihydro-pyrrol-2-one]
- AIC40 (V. fischeri luxRI system; [3]): significantly better AIC40 values than compounds 198 and 205
- mortality ([2]; 12 μg/g body weight, injections twice a day for three days, 10 mice per group, Vehicle 30%): 10%
- severity (LIMP) of P aeruginosa lung infection ([2]; LIMP = fraction of total lung area showing inflammation, 12 μg/g twice a day for three days, vs vehicle): significantly reduced the severity (LIMP)
- lung bacterial load ([2]; day 5, 12 μg/g twice a day for three days, vs Vehicle, p=0.0008 (FIG. 1)): significantly reduced the lung bacterial load
- Mean (cell number) (Murine L929 cells; 10 μg/ml): 5.41E+05
- % Inhibition (Murine L929 cells; 10 μg/ml): −10.3%
- Mean (cell number) (Murine L929 cells; 20 μg/ml): 4.95E+05
- % Inhibition (Murine L929 cells; 20 μg/ml): −1.0%
- Mean (cell number) (Murine L929 cells; 40 μg/ml, E+05 = ×10^5): 4.74E+05
- % Inhibition (Murine L929 cells; 40 μg/ml, 30% = cytotoxic potential): 3.4%
- cytotoxicity (in words) (Murine L929 cells; compared with compounds 226 and 223): surprisingly little or no cytotoxicity

SMILES: CC1(O)NC(=O)C=C1c1ccccc1F (stereo not shown)
- AIC40 (V. fischeri luxRI system; [4]): 9.9
- minimal effective concentration [1]: > 100 µg/mL
- P. aeruginosa biofilm (P. aeruginosa biofilm; 20 ug/ml): 12% (20 ug/ml)
- inhibition at 100 µg/mL (LasR): 40%
- S. epidermidis biofilm (S. epidermidis biofilm; 50 ug/ml): 17% (50 ug/ml)

SMILES: C=C1NC(=O)C=C1c1ccccc1F
- AIC40 (V. fischeri luxRI system; [4]): 1.7
- minimal effective concentration [1]: 20 µg/mL
- inhibition at 25 µg/mL (LasR): 60%
- S. epidermidis biofilm (S. epidermidis biofilm; 0.3 ug/ml): 60% (0.3 ug/ml)

SMILES: CCCC(O)C1=C(Br)/C(=C/Br)N(c2ccccc2)C1=O (stereo not shown) [reference compound]
- AIC40 (V. fischeri luxRI system; [3]): 99

SMILES: CC1(O)NC(=O)C=C1c1cccc(F)c1 (stereo not shown)
- minimal effective concentration [1]: > 100 µg/mL

SMILES: C=C1NC(=O)C=C1c1ccc(OC)cc1 [drawing 24]
- ID40 at 3 nM OHHL (V. fischeri luxRI system; Table 4, number in parentheses, amount of compound lowering relative activity to 40%): 61 nM
- AIC40 (V. fischeri luxRI system; [3]): 5.4
- AIC40 (V. fischeri luxRI system; [4]): 5.4
- P. aeruginosa biofilm (P. aeruginosa biofilm; 25 ug/ml): 76% (25 ug/ml)
- inhibition at 25 µg/mL (LasR): 36%

SMILES: C=C1NC(=O)C=C1c1ccc(Br)cc1 [Compound 295]
- AIC40 (V. fischeri luxRI system; [3]): significantly better AIC40 values than compounds 198 and 205

SMILES: CC1(O)NC(=O)C=C1Cc1ccccc1 (stereo not shown)
- minimal effective concentration [1]: > 100 µg/mL

SMILES: C=C1NC(=O)C=C1c1ccc(C(F)(F)F)cc1
- AIC40 (V. fischeri luxRI system; [4]): 1
- minimal effective concentration [1]: 1 µg/mL
- inhibition at 25 µg/mL (LasR): 54%

SMILES: COc1ccccc1C1=CC(=O)NC1(C)O (stereo not shown)
- minimal effective concentration [1]: > 50 µg/mL
- inhibition at 100 µg/mL (LasR): 41%

SMILES: CC1(O)NC(=O)C=C1c1ccc(F)cc1 (stereo not shown)
- minimal effective concentration [1]: 100 µg/mL
- inhibition at 100 µg/mL (LasR): 28%
